Source: US9718804B2, “GSK-3 inhibitors” (BRISTOL-MYERS SQUIBB COMPANY, priority 2013, dated 2017)
Where two headings read alike, the source gives them in different places.

Experiments:
[1] = molecular target: GSK3β (Homo sapiens, UniProt P49841); assay: GSK3β kinase assay (Caliper LabChip, fluoresceinated peptide substrate); assay type: biochemical
Summary of the method: (§1)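 Kinase reactions ran at room temperature for 20 hours, then were stopped with EDTA. Phosphorylated product and unphosphorylated substrate were separated electrophoretically on a LabChip3000, and IC50s came from non-linear regression over eleven compound concentrations.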

[2] = molecular target: GSK3α (Homo sapiens, UniProt P49840); assay: GSK3α kinase assay (Caliper LabChip, fluoresceinated peptide substrate); assay type: biochemical
GSK3α, sequence (P49840 whole entry, species assumed): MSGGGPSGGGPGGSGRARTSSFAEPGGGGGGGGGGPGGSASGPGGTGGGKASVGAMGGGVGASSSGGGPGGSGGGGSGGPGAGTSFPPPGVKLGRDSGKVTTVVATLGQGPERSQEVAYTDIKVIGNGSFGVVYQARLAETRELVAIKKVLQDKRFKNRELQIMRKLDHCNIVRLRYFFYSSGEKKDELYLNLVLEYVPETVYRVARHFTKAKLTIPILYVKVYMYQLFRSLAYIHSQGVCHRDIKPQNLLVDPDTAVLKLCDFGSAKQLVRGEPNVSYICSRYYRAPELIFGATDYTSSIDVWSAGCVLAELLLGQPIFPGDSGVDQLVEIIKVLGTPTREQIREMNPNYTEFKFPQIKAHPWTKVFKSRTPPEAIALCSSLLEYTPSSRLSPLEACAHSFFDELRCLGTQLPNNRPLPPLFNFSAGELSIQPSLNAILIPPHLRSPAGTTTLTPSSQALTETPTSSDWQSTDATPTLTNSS
Summary of the method: as §1

[3] = system: pTau; assay: pTau assay (no method described); assay type: cell-based
[4] = first value of the cell, 250 pM enzyme, 20 uM ATP, 20 hours at room temperature, read-out: GSK3β/α (nM): GSK3β IC50
[5] = second value of the cell, 250 pM enzyme, 20 uM ATP, 20 hours at room temperature, read-out: GSK3β/α (nM): GSK3α IC50

GSK3β, sequence (P49841 whole entry, species assumed): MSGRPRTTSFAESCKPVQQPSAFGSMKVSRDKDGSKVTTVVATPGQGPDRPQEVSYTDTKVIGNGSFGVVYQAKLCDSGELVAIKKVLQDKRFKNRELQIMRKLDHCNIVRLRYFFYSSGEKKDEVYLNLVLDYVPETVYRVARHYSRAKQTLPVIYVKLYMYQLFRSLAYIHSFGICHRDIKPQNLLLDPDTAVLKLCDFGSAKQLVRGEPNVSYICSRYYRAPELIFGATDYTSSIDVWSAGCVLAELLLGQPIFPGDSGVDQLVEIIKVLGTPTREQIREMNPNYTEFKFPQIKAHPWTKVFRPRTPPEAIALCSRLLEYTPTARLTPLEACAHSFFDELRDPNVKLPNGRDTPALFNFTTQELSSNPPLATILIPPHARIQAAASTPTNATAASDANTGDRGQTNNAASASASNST

SMILES: O=C(Nc1cnccc1-c1ccc(Cl)cc1)c1ccnc(Nc2ccc(Cl)cn2)c1 [Example 60, N-(4-(4-Chlorophenyl)pyridin-3-yl)-2-((5-chloropyridin-2-yl)amino)isonicotinamide]
- IC50 [1, 4]: 2.7 nM
- IC50 [2]: 1.2 nM
- IC50 [3]: 270 nM

SMILES: CC1OC(C)(c2cc(Cl)ncc2NC(=O)c2ccnc(Nc3ccc(C(F)(F)F)cn3)c2)OC1C (stereo not drawn) [Example 78, N-(6-Chloro-4-(2,4,5-trimethyl-1,3-dioxolan-2-yl)pyridin-3-yl)-2-((5-(trifluoromethyl)pyridin-2-yl)amino)isonicotinamide]
- IC50 [1, 4]: 4.5 nM
- IC50 [2]: 3.2 nM
- IC50 [3]: 170 nM

SMILES: CC(C)(C)C(=O)Nc1cccc(Nc2cc(C(=O)Nc3cncc(-c4ccccc4F)c3)ccn2)n1 [Example 154, N-(5-(2-Fluorophenyl)pyridin-3-yl)-2-((6-pivalamidopyridin-2-yl)amino)isonicotinamide]
- IC50 [1, 4]: 9.2 nM
- IC50 [2]: 2.2 nM
- IC50 [3]: 1100 nM

SMILES: CC(C)C1(c2cc(Cl)ncc2NC(=O)c2ccnc(Nc3ccc(C(F)(F)F)cn3)c2)OCCO1 [Example 83, N-(6-Chloro-4-(2-isopropyl-1,3-dioxolan-2-yl)pyridin-3-yl)-2-((5-(trifluoromethyl)pyridin-2-yl)amino)isonicotinamide]
- IC50 [1, 4]: 1.1 nM
- IC50 [2]: 0.55 nM
- IC50 [3]: 57 nM

SMILES: O=C(Nc1cncnc1)c1ccnc(Nc2ccc(C(F)(F)F)cn2)c1 [Example 191, N-(Pyrimidin-5-yl)-2-((5-(trifluoromethyl)pyridin-2-yl)amino)isonicotinamide]
- IC50 [1, 4]: 17 nM
- IC50 [2]: 9 nM
- IC50 [3]: 1600 nM

SMILES: O=C(Nc1cncc(-c2cccc(F)c2F)c1)c1ccnc(Nc2ccc(C(F)(F)F)cn2)c1 [Example 130, N-(5-(2,3-Difluorophenyl)pyridin-3-yl)-2-((5-(trifluoromethyl)pyridin-2-yl)amino)isonicotinamide]
- IC50 [1, 4]: 42 nM
- IC50 [2]: 20 nM
- IC50 [3]: 2600 nM

SMILES: O=C(Nc1cnccc1OCC(F)(F)F)c1ccnc(Nc2ccc(C(F)(F)F)cn2)c1F [Example 169, 3-Fluoro-N-(4-(2,2,2-trifluoroethoxy)pyridin-3-yl)-2-((5-(trifluoromethyl)pyridin-2-yl)amino)isonicotinamide]
- IC50 [1, 4]: 28 nM
- IC50 [2]: 10 nM
- IC50 [3]: 3900 nM

SMILES: O=C(Nc1cnncc1Br)c1ccnc(Nc2ccc(C(F)(F)F)cn2)c1 [Example 197, N-(5-Bromopyridazin-4-yl)-2-((5-(trifluoromethyl)pyridin-2-yl)amino)isonicotinamide]
- IC50 [1, 4]: 70 nM
- IC50 [2]: 22 nM
- IC50 [3]: 3500 nM

SMILES: CC(=O)c1ccc(Nc2cc(C(=O)Nc3cncc(-c4ccccc4F)c3)ccn2)nc1 [Example 158, 2-((5-Acetylpyridin-2-yl)amino)-N-(5-(2-fluorophenyl)pyridin-3-yl)isonicotinamide]
- IC50 [1, 4]: 6 nM
- IC50 [2]: 3 nM
- IC50 [3]: 690 nM

SMILES: O=C(Nc1cncc(-c2cc(F)ccc2F)c1)c1ccnc(Nc2cccc(C(F)(F)F)n2)c1 [Example 146, N-(5-(2,5-Difluorophenyl)pyridin-3-yl)-2-((6-(trifluoromethyl)pyridin-2-yl)amino)isonicotinamide]
- IC50 [1, 4]: 5.1 nM
- IC50 [2]: 3.2 nM
- IC50 [3]: 1400 nM

SMILES: O=C(Nc1cnccc1-c1ccccc1)c1ccnc(Nc2cccc(C(F)(F)F)n2)c1 [Example 2, N-(4-Phenylpyridin-3-yl)-2-((6-(trifluoromethyl)pyridin-2-yl)amino)isonicotinamide]
- IC50 [1, 4]: 6.8 nM
- IC50 [2]: 7.3 nM
- IC50 [3]: 574 nM

SMILES: O=C(Nc1cnccc1S(=O)(=O)CC(F)(F)F)c1ccnc(Nc2ccc(C(F)(F)F)cn2)c1 [Example 184, N-(4-((2,2,2-Trifluoroethyl)sulfonyl)pyridin-3-yl)-2-((5-(trifluoromethyl)pyridin-2-yl)amino)isonicotinamide]
- IC50 [1, 4]: 120 nM
- IC50 [2]: 4.8 nM
- IC50 [3]: 130 nM

SMILES: O=C(Nc1cnc(Cl)cc1N1CCC(F)(F)CC1)c1ccnc(Nc2ccc(C(F)(F)F)cn2)c1 [Example 70, N-(6-Chloro-4-(4,4-difluoropiperidin-1-yl)pyridin-3-yl)-2-((5-(trifluoromethyl)pyridin-2-yl)amino)isonicotinamide]
- IC50 [1, 4]: 7.6 nM
- IC50 [2]: 2.6 nM
- IC50 [3]: 564 nM

SMILES: O=C(Nc1cncc(-c2cccc(F)c2F)c1)c1ccnc(Nc2cccc(C(F)(F)F)n2)c1 [Example 147, N-(5-(2,3-Difluorophenyl)pyridin-3-yl)-2-((6-(trifluoromethyl)pyridin-2-yl)amino)isonicotinamide]
- IC50 [1, 4]: 2.3 nM
- IC50 [2]: 44 nM
- IC50 [3]: 380 nM

SMILES: CC(O)(c1cc(Cl)ncc1NC(=O)c1ccnc(Nc2ccc(C(F)(F)F)cn2)c1)C1CC1 (stereo not drawn) [Example 98, N-(6-Chloro-4-(1-cyclopropyl-1-hydroxyethyl)pyridin-3-yl)-2-((5-(trifluoromethyl)pyridin-2-yl)amino)isonicotinamide]
- IC50 [1, 4]: 3.7 nM
- IC50 [2]: 4 nM
- IC50 [3]: 230 nM

SMILES: O=C(Nc1cnccc1OCCN1CCCC1)c1ccnc(Nc2ccc(C(F)(F)F)cn2)c1 [Example 46, N-(4-(2-(Pyrrolidin-1-yl)ethoxy)pyridin-3-yl)-2-((5-(trifluoromethyl)pyridin-2-yl)amino)isonicotinamide]
- IC50 [1, 4]: 150 nM
- IC50 [2]: 75 nM
- IC50 [3]: 4300 nM

SMILES: CC1(c2cc(Cl)ncc2NC(=O)c2ccnc(Nc3ccc(C(F)(F)F)cn3)c2)CCCO1 (stereo not drawn) [Example 77, N-(6-Chloro-4-(2-methyltetrahydrofuran-2-yl)pyridin-3-yl)-2-((5-(trifluoromethyl)pyridin-2-yl)amino)isonicotinamide]
- IC50 [1, 4]: 0.63 nM
- IC50 [2]: 0.35 nM
- IC50 [3]: 31 nM

SMILES: CC(C)(C)COc1cc(F)ncc1NC(=O)c1ccnc(Nc2ccc(C(F)(F)F)cn2)c1 [Example 75, N-(6-Fluoro-4-(neopentyloxy)pyridin-3-yl)-2-((5-(trifluoromethyl)pyridin-2-yl)amino)isonicotinamide]
- IC50 [1, 4]: 5.1 nM
- IC50 [2]: 2.4 nM
- IC50 [3]: 830 nM

SMILES: CCOc1ccncc1NC(=O)c1ccnc(Nc2ccccn2)c1 [Example 11, N-(4-Ethoxypyridin-3-yl)-2-(pyridin-2-ylamino)isonicotinamide]
- IC50 [1, 4]: 8.9 nM
- IC50 [2]: 2.8 nM
- IC50 [3]: 294 nM

SMILES: O=C(Nc1cnc(Cl)cc1C(O)(C1CC1)C1CC1)c1ccnc(Nc2ccc(C(F)(F)F)cn2)c1 [Example 99, N-(6-Chloro-4-(dicyclopropyl(hydroxy)methyl)pyridin-3-yl)-2-((5-(trifluoromethyl)pyridin-2-yl)amino)isonicotinamide]
- IC50 [1, 4]: 6.4 nM
- IC50 [2]: 4.6 nM
- IC50 [3]: 430 nM

SMILES: N#Cc1ccc(Nc2cc(C(=O)Nc3cnccc3N3CCCCC3)ccn2)nc1 [Example 27, 2-((5-Cyanopyridin-2-yl)amino)-N-(4-(piperidin-1-yl)pyridin-3-yl)isonicotinamide]
- IC50 [1, 4]: 0.42 nM
- IC50 [2]: 0.18 nM
- IC50 [3]: 5.2 nM

SMILES: O=C(Nc1cnc(F)cc1N1CCOCC1)c1ccnc(Nc2ccc(C(F)(F)F)cn2)c1 [Example 73, N-(6-Fluoro-4-morpholinopyridin-3-yl)-2-((5-(trifluoromethyl)pyridin-2-yl)amino)isonicotinamide]
- IC50 [1, 4]: 1 nM
- IC50 [2]: 0.6 nM
- IC50 [3]: 43 nM

SMILES: CCCC1(c2cc(Cl)ncc2NC(=O)c2ccnc(Nc3ccc(C(F)(F)F)cn3)c2)OCCO1 [Example 88, N-(6-Chloro-4-(2-propyl-1,3-dioxolan-2-yl)pyridin-3-yl)-2-((5-(trifluoromethyl)pyridin-2-yl)amino)isonicotinamide]
- IC50 [1, 4]: 0.69 nM
- IC50 [2]: 0.23 nM
- IC50 [3]: 80 nM

SMILES: O=C(Nc1cnccc1-c1ccc(Cl)cc1)c1ccnc(Nc2ccc(C(F)(F)F)cn2)c1 [Example 51, N-(4-(4-Cholorophenyl)pyridin-3-yl)-2-((5-(trifluoromethyl)pyridin-2-yl)amino)isonicotinamide]
- IC50 [1, 4]: 9.9 nM
- IC50 [2]: 6.9 nM
- IC50 [3]: 266 nM

SMILES: CCC1(c2cc(Cl)ncc2NC(=O)c2ccnc(Nc3ccc(C)cn3)c2)OCCO1 [Example 109, N-(6-Chloro-4-(2-ethyl-1,3-dioxolan-2-yl)pyridin-3-yl)-2-((5-methylpyridin-2-yl)amino)isonicotinamide]
- IC50 [1]: 1.8 nM
- IC50 [2, 5]: 1.2 nM
- IC50 [3]: 45 nM

SMILES: N#Cc1cnn(-c2cncc(NC(=O)c3ccnc(Nc4cccc(C(F)(F)F)n4)c3)c2)c1 [Example 122, N-(5-(4-Cyano-1H-pyrazol-1-yl)pyridin-3-yl)-2-((6-(trifluoromethyl)pyridin-2-yl)amino)isonicotinamide]
- IC50 [1, 4]: 6.9 nM
- IC50 [2]: 2.2 nM
- IC50 [3]: 2000 nM

SMILES: O=C(Nc1cncc(-c2ccccc2F)n1)c1ccnc(Nc2ccc(C(F)(F)F)cn2)c1 [Example 190, N-(6-(2-Fluorophenyl)pyrazin-2-yl)-2-((5-(trifluoromethyl)pyridin-2-yl)amino)isonicotinamide]
- IC50 [1, 4]: 68 nM
- IC50 [2]: 29 nM
- IC50 [3]: 10000 nM

SMILES: O=C(Nc1cnccc1C1CCOCC1)c1ccnc(Nc2ccc(C(F)(F)F)cn2)c1 [Example 35, N-(4-(Tetrahydro-2H-pyran-4-yl)pyridin-3-yl)-2-((5-(trifluoromethyl)pyridin-2-yl)amino)isonicotinamide]
- IC50 [1]: 16 nM
- IC50 [2, 5]: 8.7 nM
- IC50 [3]: 760 nM

SMILES: O=C(Nc1cncnc1OCC(F)(F)F)c1ccnc(Nc2ccc(C(F)(F)F)cn2)c1 [Example 194, N-(4-(2,2,2-Trifluoroethoxy)pyrimidin-5-yl)-2-((5-(trifluoromethyl)pyridin-2-yl)amino)isonicotinamide]
- IC50 [1, 4]: 3.2 nM
- IC50 [2]: 1.6 nM
- IC50 [3]: 140 nM

SMILES: N#Cc1cccc(Nc2cc(C(=O)Nc3cncc(-c4ccccc4F)c3)ccn2)n1 [Example 152, 2-((6-Cyanopyridin-2-yl)amino)-N-(5-(2-fluorophenyl)pyridin-3-yl)isonicotinamide]
- IC50 [1, 4]: 1.6 nM
- IC50 [2]: 0.87 nM
- IC50 [3]: 260 nM
